The record followed here is ChEMBL document CHEMBL5137100, “N-Alkyl-2-Quinolonopyrones Demonstrate Antimicrobial Activity against ESKAPE Pathogens Including Staphylococcus aureus” (2022).

Holding throughout (format): functional
Conditions in all cases: time 18-20 hrs

In experiment [1] the test system is Staphylococcus aureus. The experiment is described as follows: Antibacterial activity against methicillin-sensitive Staphylococcus aureus GP-001 ATCC 25923 assessed as reduction in bacterial growth in CAMHB incubated for 18 to 20 hrs by broth dilution method.
The test system of experiment [2] is Staphylococcus aureus. Put plainly: Antibacterial activity against methicillin-resistant Staphylococcus aureus GP-020 ATCC 43300 assessed as reduction in bacterial growth in CAMHB incubated for 18 to 20 hrs by broth dilution method.
Experiment [3] deals with Staphylococcus aureus. The experiment is described as follows: Antibacterial activity against methicillin-resistant Staphylococcus aureus GP-021 ATCC 33591 assessed as reduction in bacterial growth in CAMHB incubated for 18 to 20 hrs by broth dilution method.
The test system of experiment [4] is Staphylococcus aureus. The experiment is described as follows: Antibacterial activity against vancomycin intermediate and methicillin resistant Staphylococcus aureus GP-035 ATCC 700699 assessed as reduction in bacterial growth in CAMHB incubated for 18 to 20 hrs by broth dilution method.
For experiment [5], the system named is Staphylococcus aureus. Put plainly: Antibacterial activity against daptomycin and methicillin resistant Staphylococcus aureus GP-036 assessed as reduction in bacterial growth in CAMHB incubated for 18 to 20 hrs by broth dilution method.
The test system of experiment [6] is Enterococcus sp. Put plainly: Antibacterial activity against Enterococcus sp. GP-024 ATCC 35667 assessed as reduction in bacterial growth in CAMHB incubated for 18 to 20 hrs by broth dilution method.
Experiment [7] has as its system Enterococcus sp. The experiment is described as follows: Antibacterial activity against vancomycin resistant Enterococcus sp. GP-026 ATCC 700221 assessed as reduction in bacterial growth in CAMHB incubated for 18 to 20 hrs by broth dilution method.
In experiment [8] the test system is Staphylococcus epidermidis. Put plainly: Antibacterial activity against Staphylococcus epidermidis GP-017 ATCC 12228 assessed as reduction in bacterial growth in CAMHB incubated for 18 to 20 hrs by broth dilution method.
The test system of experiment [9] is Staphylococcus epidermidis. Put plainly: Antibacterial activity against Staphylococcus epidermidis GP-033 NRS 60 assessed as reduction in bacterial growth in CAMHB incubated for 18 to 20 hrs by broth dilution method.

Values after ≈ are worked out from the molar mass of the structure shown. Some results are limits rather than exact numbers.

`CCCCCCCn1c(=O)c2c(O)cc(=O)oc2c2cc(CCCCCC)ccc21`: the MIC80 in the experiment with Staphylococcus aureus [1] is 256 µg/mL (≈ 622 µM); in the experiment on Staphylococcus aureus [2], 256 µg/mL (≈ 622 µM); in the experiment on Staphylococcus aureus [3], over 256 µg/mL.
Turning to `CCCCCCCCCn1c(=O)c2c(O)cc(=O)oc2c2ccccc21`, the MIC80 is 4 µg/mL (≈ 11.3 µM) in the experiment with Staphylococcus aureus [1]; 2 µg/mL (≈ 5.63 µM) in the experiment with Staphylococcus aureus [2]; 2 µg/mL (≈ 5.63 µM) in the experiment on Staphylococcus aureus [3]; 2 µg/mL (≈ 5.63 µM) with Staphylococcus aureus [4]; 1 µg/mL (≈ 2.81 µM) in the experiment on Staphylococcus aureus [5]; over 4 µg/mL in the experiment on Enterococcus sp. [6]. The MIC80 in the experiment with Enterococcus sp. [7] is 4 µg/mL (≈ 11.3 µM); in experiment [8] it was 2 µg/mL (≈ 5.63 µM); in [9], 2 µg/mL (≈ 5.63 µM).
On to `CCCCCCCn1c(=O)c2c(O)cc(=O)oc2c2cc(Cl)ccc21`, for which the MIC80 was 8 µg/mL (≈ 22.1 µM) in the experiment with Staphylococcus aureus [1]; 1 µg/mL (≈ 2.76 µM) in the experiment with Staphylococcus aureus [2]; over 128 µg/mL in the experiment with Staphylococcus aureus [3]; 128 µg/mL (≈ 354 µM) with Staphylococcus aureus [4]; 1 µg/mL (≈ 2.76 µM) in the experiment on Staphylococcus aureus [5]; over 128 µg/mL in the experiment with Enterococcus sp. [6]. For the same compound, the MIC80 with Enterococcus sp. [7] was found to be 64 µg/mL (≈ 177 µM); in [8] it was 1 µg/mL (≈ 2.76 µM); in experiment [9] it was 8 µg/mL (≈ 22.1 µM).
Take `CCCCCCCn1c(=O)c2c(O)cc(=O)oc2c2cc(C)ccc21`: the MIC80 with Staphylococcus aureus [1] is over 128 µg/mL; in the experiment on Staphylococcus aureus [2], 1 µg/mL (≈ 2.93 µM); with Staphylococcus aureus [3], 64 µg/mL (≈ 187 µM); in the experiment with Staphylococcus aureus [4], over 128 µg/mL; in the experiment with Staphylococcus aureus [5], over 128 µg/mL; in the experiment with Enterococcus sp. [6], 128 µg/mL (≈ 375 µM). Besides, the MIC80 in the experiment on Enterococcus sp. [7] was 32 µg/mL (≈ 93.7 µM); in experiment [8] it was 16 µg/mL (≈ 46.9 µM); in [9] it was over 64 µg/mL.
As for `CCCCCCCn1c(=O)c2c(O)cc(=O)oc2c2cc(F)ccc21`, the MIC80 was 8 µg/mL (≈ 23.2 µM) in the experiment with Staphylococcus aureus [1]; 2 µg/mL (≈ 5.79 µM) with Staphylococcus aureus [2]; 4 µg/mL (≈ 11.6 µM) with Staphylococcus aureus [3]; 4 µg/mL (≈ 11.6 µM) with Staphylococcus aureus [4]; 2 µg/mL (≈ 5.79 µM) in the experiment with Staphylococcus aureus [5]; over 64 µg/mL in the experiment on Enterococcus sp. [6]. The MIC80 amounted to 32 µg/mL (≈ 92.7 µM) in the experiment with Enterococcus sp. [7], 4 µg/mL (≈ 11.6 µM) in experiment [8] and 8 µg/mL (≈ 23.2 µM) in experiment [9].
As for `CCCCCCCCCCn1c(=O)c2c(O)cc(=O)oc2c2ccccc21`, the MIC80 in the experiment with Staphylococcus aureus [1] was over 64 µg/mL; with Staphylococcus aureus [2], 4 µg/mL (≈ 10.8 µM); with Staphylococcus aureus [3], over 64 µg/mL; with Staphylococcus aureus [4], over 64 µg/mL; with Staphylococcus aureus [5], over 64 µg/mL; in the experiment on Enterococcus sp. [6] it was over 64 µg/mL. Moreover, the MIC80 is 0.5 µg/mL (≈ 1.35 µM) in the experiment on Enterococcus sp. [7], 4 µg/mL (≈ 10.8 µM) in [8] and over 64 µg/mL in [9].
On to `CCCCCCCn1c(=O)c2c(O)cc(=O)oc2c2ccccc21`, for which the MIC80 with Staphylococcus aureus [1] is 8 µg/mL (≈ 24.4 µM); with Staphylococcus aureus [2] it was 4 µg/mL (≈ 12.2 µM); in the experiment on Staphylococcus aureus [3] it was 8 µg/mL (≈ 24.4 µM); in the experiment with Staphylococcus aureus [4] it was 8 µg/mL (≈ 24.4 µM); in the experiment on Staphylococcus aureus [5], 4 µg/mL (≈ 12.2 µM); in the experiment with Enterococcus sp. [6] it was over 128 µg/mL. The values for the MIC80 (in the experiment on Enterococcus sp. [7]; in [8]; in experiment [9]) were 16 µg/mL (≈ 48.9 µM), 4 µg/mL (≈ 12.2 µM) and 4 µg/mL (≈ 12.2 µM), respectively.
`CCCCCCCn1c(=O)c2c(O)cc(=O)oc2c2cc(OC)ccc21`: the MIC80 was 8 µg/mL (≈ 22.4 µM) in the experiment with Staphylococcus aureus [1], at most 8 µg/mL in the experiment on Staphylococcus aureus [2] and at most 8 µg/mL in the experiment on Staphylococcus aureus [3].
Take `CCCCCCCCn1c(=O)c2c(O)cc(=O)oc2c2ccccc21`: the MIC80 in the experiment with Staphylococcus aureus [1] is 8 µg/mL (≈ 23.4 µM); in the experiment on Staphylococcus aureus [2] it was 2 µg/mL (≈ 5.86 µM); in the experiment on Staphylococcus aureus [3] it was 4 µg/mL (≈ 11.7 µM); in the experiment with Staphylococcus aureus [4], 4 µg/mL (≈ 11.7 µM); with Staphylococcus aureus [5] it was 4 µg/mL (≈ 11.7 µM); in the experiment on Enterococcus sp. [6], over 128 µg/mL. Moreover, the values for the MIC80 (in the experiment with Enterococcus sp. [7]; in experiment [8]; in [9]) were 1 µg/mL (≈ 2.93 µM), 4 µg/mL (≈ 11.7 µM) and 1 µg/mL (≈ 2.93 µM), respectively.
For the compound `CCCCCCCn1c(=O)c2c(O)cc(=O)oc2c2cc(C(C)(C)C)ccc21`, the MIC80 in the experiment with Staphylococcus aureus [1] was 2 µg/mL (≈ 5.22 µM); with Staphylococcus aureus [2], 1 µg/mL (≈ 2.61 µM); in the experiment with Staphylococcus aureus [3], 2 µg/mL (≈ 5.22 µM); in the experiment on Staphylococcus aureus [4], 1 µg/mL (≈ 2.61 µM); with Staphylococcus aureus [5] it was 1 µg/mL (≈ 2.61 µM); with Enterococcus sp. [6], over 128 µg/mL. The MIC80 turned out to be 4 µg/mL (≈ 10.4 µM) in the experiment on Enterococcus sp. [7], 2 µg/mL (≈ 5.22 µM) in experiment [8] and 0.25 µg/mL (≈ 0.652 µM) in experiment [9].
Regarding `CCCCCCCn1c(=O)c2c(O)cc(=O)oc2c2c(C)cc(C)cc21`, the MIC80 in the experiment on Staphylococcus aureus [1], in the experiment on Staphylococcus aureus [2] and in the experiment with Staphylococcus aureus [3] was over 256 µg/mL throughout.
Consider `CCCCCCn1c(=O)c2c(O)cc(=O)oc2c2ccccc21`, for which the MIC80 was 16 µg/mL (≈ 51.1 µM) with Staphylococcus aureus [1]; 8 µg/mL (≈ 25.5 µM) in the experiment on Staphylococcus aureus [2]; 16 µg/mL (≈ 51.1 µM) with Staphylococcus aureus [3]; 8 µg/mL (≈ 25.5 µM) with Staphylococcus aureus [4]; 8 µg/mL (≈ 25.5 µM) with Staphylococcus aureus [5]; over 64 µg/mL in the experiment on Enterococcus sp. [6]. Moreover, the MIC80 in the experiment with Enterococcus sp. [7] was found to be 8 µg/mL (≈ 25.5 µM); in experiment [8] it was 8 µg/mL (≈ 25.5 µM); in [9], 2 µg/mL (≈ 6.38 µM).
